The source of these data is patent US10159651B2, “Two-stage microparticle-based therapeutic delivery system and method” (Privo Technologies, Inc., priority 2016, dated 2018).

Data set [1] is described as follows: release profile of cisplatin from particles, detected by atomic absorption spectrometry. In kind it is physicochemical. The settings on record: over 60 hours; particles of average diameter 500 to 2000 nm. An excerpt: FIG. 1 is a graph showing the release profile of example particles having an average diameter in the range of 500 to 2000 nm. […] Cisplatin was used for this experiment due to its use in the treatment of oral cancer and its ease of detection via atomic absorption spectrometry (AAS).

The nature of data set [2]: permeation of fluorescent dyes from multi-layered device into buccal tissue. In kind it is in vitro ADME, lamb. An excerpt: FIGS. 5A-5C show three images taken from lamb buccal tissue at different time points.
In another representative embodiment, a multi-layered device may be used for the delivery of multiple agents over a prolonged period of time (FIG. 4, FIG. 5). If the example of mucositis is again used, multiple layers may include a pain mitigator in free form, a pain mitigator encapsulated within microparticles and an agent for the treatment of mucositis encapsulated within microparticles. The initial freeform layer is able to provide immediate pain relief, and the subsequent particle-encapsulated layers are capable of delivering microparticles beneath the tissue, where they further release their agents over a period of days, providing longer-term pain relief and treatment. FIG. 4 and FIG. 5 illustrate this effect. Fluorescence was used in order to provide detection. As shown, the multiple fluorescent layers released over time and permeated the tissue at different rates, providing a customized treatment.

For `N.N.[Cl][Pt][Cl]` [cisplatin, Cisplatin], the “cisplatin released from NPs” value in data set [1] is recorded as 45%.

As for `O=C1OC2(c3ccc(O)cc3Oc3cc(O)ccc32)c2ccc(N=C=S)cc21` [FITC], the results for the permeation into tissue entry in data set [2] (after 30 minutes) and in data set [2] (after 1 hour) were “beginning to permeate the tissue” and “permeating deeper into the tissue”, respectively.
